According to US10765114B2, “4-amino-6-(pyridyl and 2-substitutedphenyl)-picolinates and 6-amino-2-(pyridyl and 2-substitutedphenyl)-pyrimidine-4-carboxylates and their use as herbicides” (Dow AgroSciences LLC, priority 2013, dated 2020):

These compounds were tested on Key Grass and Sedge Weeds as well as Grass Crops (assay: Post-Emergent Test II (Table 6)). Details: post-emergence, 336 h, CYPSS, 70 g ai/ha, 14 days after application, read-out: Visual Growth Reduction (%) 14 Days After Application CYPSS.
Assay type: in vivo
Procedure, shortened: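 Visual injury ratings (0 = no injury, 100 = complete kill) taken 14 days after treatment, relative to untreated controls. Compounds, in an acetone/DMSO aqueous carrier with crop oil and surfactant, were applied by track sprayer at 187 L/ha, in a twofold dilution series from the top rate, to plants at the first to second true-leaf stage.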

How did the pest or weed control at 70 g/ha turn out when `COC(=O)c1nc(-c2ccc(Br)nc2)c(F)c(N)c1Cl` [Compound 22, methyl 4-amino-6′-bromo-5-chloro-3-fluoro-[2,3′-bipyridine]-6-carboxylate] was run?
The pest or weed control at 70 g/ha was 95 to 100%.

Same assay, conditions: post-emergence, 336 h, CYPSS, 140 g ai/ha, 14 days after application, read-out: Visual Growth Reduction (%) 14 Days After Application CYPSS

With `COC(=O)c1nc(-c2ccc(Br)nc2)c(F)c(N)c1Cl` [Compound 22, methyl 4-amino-6′-bromo-5-chloro-3-fluoro-[2,3′-bipyridine]-6-carboxylate] as the compound, how does the pest or weed control at 140 g/ha read?
The pest or weed control at 140 g/ha was 95 to 100%.

Same assay, conditions: post-emergence, 336 h, DIGSA: crabgrass (Digitaria sanguinalis), 70 g ai/ha, 14 days after application, read-out: Visual Growth Reduction (%) 14 Days After Application DIGSA

How did the pest or weed control at 70 g/ha turn out when `COC(=O)c1nc(-c2ccc(Br)nc2)c(F)c(N)c1Cl` [Compound 22, methyl 4-amino-6′-bromo-5-chloro-3-fluoro-[2,3′-bipyridine]-6-carboxylate] was run?
The pest or weed control at 70 g/ha was 85 to 94%.

Same assay, conditions: post-emergence, 336 h, DIGSA: crabgrass (Digitaria sanguinalis), 140 g ai/ha, 14 days after application, read-out: Visual Growth Reduction (%) 14 Days After Application DIGSA

For `COC(=O)c1nc(-c2ccc(Br)nc2)c(F)c(N)c1Cl` [Compound 22, methyl 4-amino-6′-bromo-5-chloro-3-fluoro-[2,3′-bipyridine]-6-carboxylate], which pest or weed control at 140 g/ha is on record?
Its pest or weed control at 140 g/ha is 85 to 94%.

Same assay, conditions: post-emergence, 336 h, ECHSS, 70 g ai/ha, 14 days after application, read-out: Visual Growth Reduction (%) 14 Days After Application ECHSS

`COC(=O)c1nc(-c2ccc(Br)nc2)c(F)c(N)c1Cl` [Compound 22, methyl 4-amino-6′-bromo-5-chloro-3-fluoro-[2,3′-bipyridine]-6-carboxylate] was tested. Which pest or weed control at 70 g/ha did it give?
Its pest or weed control at 70 g/ha is 85 to 94%.

Same assay, conditions: post-emergence, 336 h, ECHSS, 140 g ai/ha, 14 days after application, read-out: Visual Growth Reduction (%) 14 Days After Application ECHSS

How did the pest or weed control at 140 g/ha turn out when `COC(=O)c1nc(-c2ccc(Br)nc2)c(F)c(N)c1Cl` [Compound 22, methyl 4-amino-6′-bromo-5-chloro-3-fluoro-[2,3′-bipyridine]-6-carboxylate] was run?
The pest or weed control at 140 g/ha was 95 to 100%.

Same assay, conditions: post-emergence, 336 h, ORYSS (crop), 70 g ai/ha, 14 days after application, read-out: Visual Growth Reduction (%) 14 Days After Application ORYSS

Which pest or weed control at 70 g/ha does the source give for `COC(=O)c1nc(-c2ccc(Br)nc2)c(F)c(N)c1Cl` [Compound 22, methyl 4-amino-6′-bromo-5-chloro-3-fluoro-[2,3′-bipyridine]-6-carboxylate] here?
Its pest or weed control at 70 g/ha is 30 to 44%.

Same assay, conditions: post-emergence, 336 h, ORYSS (crop), 140 g ai/ha, 14 days after application, read-out: Visual Growth Reduction (%) 14 Days After Application ORYSS

How did the pest or weed control at 140 g/ha turn out when `COC(=O)c1nc(-c2ccc(Br)nc2)c(F)c(N)c1Cl` [Compound 22, methyl 4-amino-6′-bromo-5-chloro-3-fluoro-[2,3′-bipyridine]-6-carboxylate] was run?
Its pest or weed control at 140 g/ha is 0 to 29%.

Same assay, conditions: post-emergence, 336 h, SETFA: giant foxtail (Setaria faberi), 70 g ai/ha, 14 days after application, read-out: Visual Growth Reduction (%) 14 Days After Application SETFA

With `COC(=O)c1nc(-c2ccc(Br)nc2)c(F)c(N)c1Cl` [Compound 22, methyl 4-amino-6′-bromo-5-chloro-3-fluoro-[2,3′-bipyridine]-6-carboxylate] as the compound, how does the pest or weed control at 70 g/ha read?
The pest or weed control at 70 g/ha was 85 to 94%.

Same assay, conditions: post-emergence, 336 h, SETFA: giant foxtail (Setaria faberi), 140 g ai/ha, 14 days after application, read-out: Visual Growth Reduction (%) 14 Days After Application SETFA

For `COC(=O)c1nc(-c2ccc(Br)nc2)c(F)c(N)c1Cl` [Compound 22, methyl 4-amino-6′-bromo-5-chloro-3-fluoro-[2,3′-bipyridine]-6-carboxylate], which pest or weed control at 140 g/ha is on record?
The pest or weed control at 140 g/ha was 85 to 94%.

Same assay, conditions: post-emergence, 336 h, SORVU: grain sorghum (Sorghum vulgare), 70 g ai/ha, 14 days after application, read-out: Visual Growth Reduction (%) 14 Days After Application SORVU

For `COC(=O)c1nc(-c2ccc(Br)nc2)c(F)c(N)c1Cl` [Compound 22, methyl 4-amino-6′-bromo-5-chloro-3-fluoro-[2,3′-bipyridine]-6-carboxylate], which pest or weed control at 70 g/ha is on record?
The pest or weed control at 70 g/ha was 95 to 100%.

Same assay, conditions: post-emergence, 336 h, SORVU: grain sorghum (Sorghum vulgare), 140 g ai/ha, 14 days after application, read-out: Visual Growth Reduction (%) 14 Days After Application SORVU

For `COC(=O)c1nc(-c2ccc(Br)nc2)c(F)c(N)c1Cl` [Compound 22, methyl 4-amino-6′-bromo-5-chloro-3-fluoro-[2,3′-bipyridine]-6-carboxylate], which pest or weed control at 140 g/ha is on record?
Its pest or weed control at 140 g/ha is 95 to 100%.

Same assay, conditions: post-emergence, 336 h, TRZSS (crop), 70 g ai/ha, 14 days after application, read-out: Visual Growth Reduction (%) 14 Days After Application TRZSS

With `COC(=O)c1nc(-c2ccc(Br)nc2)c(F)c(N)c1Cl` [Compound 22, methyl 4-amino-6′-bromo-5-chloro-3-fluoro-[2,3′-bipyridine]-6-carboxylate] as the compound, how does the pest or weed control at 70 g/ha read?
The pest or weed control at 70 g/ha was 85 to 94%.

Same assay, conditions: post-emergence, 336 h, TRZSS (crop), 140 g ai/ha, 14 days after application, read-out: Visual Growth Reduction (%) 14 Days After Application TRZSS

`COC(=O)c1nc(-c2ccc(Br)nc2)c(F)c(N)c1Cl` [Compound 22, methyl 4-amino-6′-bromo-5-chloro-3-fluoro-[2,3′-bipyridine]-6-carboxylate] was tested. Which pest or weed control at 140 g/ha did it give?
Its pest or weed control at 140 g/ha is 95 to 100%.

Same assay, conditions: post-emergence, 336 h, ZEAMX: maize, corn (Zea mays), 70 g ai/ha, 14 days after application, read-out: Visual Growth Reduction (%) 14 Days After Application ZEAMX

For `COC(=O)c1nc(-c2ccc(Br)nc2)c(F)c(N)c1Cl` [Compound 22, methyl 4-amino-6′-bromo-5-chloro-3-fluoro-[2,3′-bipyridine]-6-carboxylate], which pest or weed control at 70 g/ha is on record?
Its pest or weed control at 70 g/ha is 85 to 94%.
